Results reported in ChEMBL document CHEMBL2311300, “Fragment-based design, synthesis, and biological evaluation of N-substituted-5-(4-isopropylthiophenol)-2-hydroxynicotinamide derivatives as novel Mcl-1 inhibitors” (Eur J Med Chem, 2013).
pIC50, pKd, pKi: −log10 of the molar value.

Assays:
[1] = molecular target: T1, Induced myeloid leukemia cell differentiation protein Mcl-1 (Homo sapiens, UniProt Q07820); assay: Inhibition of FAM-Bid peptide binding to Mcl1 (unknown origin) expressed in Escherichia coli BL21 by fluorescence polarization-based binding assay; details: for pIC50: read-out: IC50; for pKi: read-out: Ki
T1 sequence (Q07820 whole entry): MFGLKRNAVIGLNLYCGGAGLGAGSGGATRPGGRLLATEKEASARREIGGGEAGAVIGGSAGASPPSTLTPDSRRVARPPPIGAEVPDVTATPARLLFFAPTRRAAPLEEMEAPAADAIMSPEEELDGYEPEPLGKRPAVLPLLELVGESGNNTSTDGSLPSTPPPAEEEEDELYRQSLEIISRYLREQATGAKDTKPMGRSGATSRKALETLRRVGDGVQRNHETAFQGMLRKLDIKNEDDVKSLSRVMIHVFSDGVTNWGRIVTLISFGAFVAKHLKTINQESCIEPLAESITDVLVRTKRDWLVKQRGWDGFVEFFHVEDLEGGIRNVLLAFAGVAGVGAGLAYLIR

[2] = molecular target: T1, Induced myeloid leukemia cell differentiation protein Mcl-1; assay: Inhibition of biotin-Bim peptide binding to Mcl1 (unknown origin) expressed in Escherichia coli BL21 by ELISA
K562 = assay: Induction of apoptosis in Mcl1 dependent human K562 cells after 48 hrs by Annexin V staining based flow cytometry; format: functional, cell-based; details: K562, 48 h
[3] = molecular target: T1, Induced myeloid leukemia cell differentiation protein Mcl-1; assay: Binding affinity to Mcl1 (unknown origin) expressed in Escherichia coli BL21 by ITC assay
RS4-11 = assay: Induction of apoptosis in Bcl2 dependent human RS4:11 cells after 48 hrs by Annexin V staining based flow cytometry; format: functional, cell-based; details: RS4-11, 48 h

**Q.** What does the source list for `N#Cc1cc(-c2ccccc2)c[nH]c1=O`?
**A.** pIC50 [1]: 3.58; pKi [1]: 4.98

**Q.** `N#CC(C#N)=c1c(=O)c2cccc3cccc1c32` was tested. Which pIC50 [1] did it give?
**A.** 4.15

**Q.** And the pKi [1]?
**A.** 5.55

**Q.** Which results are given for `N#Cc1ccc[nH]c1=O`?
**A.** pIC50 [1]: 2.56; pKi [1]: 3.96

**Q.** How did the pIC50 [1] turn out when `N#Cc1cc(-c2cccc3ccccc23)cnc1O` was run?
**A.** 3.80

**Q.** What about the pKi [1] of the same molecule?
**A.** 5.20

**Q.** With `N#Cc1cc(-c2ccc(Cl)cc2)c[nH]c1=O` as the molecule, how does the pIC50 [1] read?
**A.** 3.69

**Q.** And the pKi [1]?
**A.** 5.09

**Q.** With `N#Cc1cc(-c2ccc(-c3ccccc3)cc2)cnc1O` as the molecule, how does the pIC50 [1] read?
**A.** 3.50

**Q.** And the pKi [1]?
**A.** 4.90

**Q.** Which results are given for `N#Cc1cc(Sc2ccccc2)c[nH]c1=O`?
**A.** pIC50 [1]: 4.09; pKi [1]: 5.48

**Q.** `Cc1ccc(Sc2cnc(O)c(C#N)c2)cc1` was tested. Which pIC50 [1] did it give?
**A.** 4.20

**Q.** And the pKi [1]?
**A.** 5.60

**Q.** How did the pIC50 [2] turn out when `CC(C)c1ccc(Sc2c[nH]c(=O)c(C#N)c2)cc1` was run?
**A.** 6.05

**Q.** And the pKi [2]?
**A.** 6.05

**Q.** What about the pIC50 [1] of the same molecule?
**A.** 4.67

**Q.** What about the pKi [1] of the same molecule?
**A.** 6.07

**Q.** With `CCC(C)(C)c1ccc(Sc2cnc(O)c(C#N)c2)cc1` as the molecule, how does the pIC50 [1] read?
**A.** 3.75

**Q.** And the pKi [1]?
**A.** 5.15

**Q.** How did the pIC50 [1] turn out when `N#Cc1cc(Sc2ccc(Br)cc2)c[nH]c1=O` was run?
**A.** 3.92

**Q.** And the pKi [1]?
**A.** 5.32

**Q.** `N#Cc1cc(Sc2ccc(N)cc2)c[nH]c1=O` was tested. Which pIC50 [1] did it give?
**A.** 3.88

**Q.** And the pKi [1]?
**A.** 5.27

**Q.** With `CC(C)c1ccc(Sc2cc(C#N)c(=O)n(Cc3ccccc3)c2)cc1` as the molecule, how does the pIC50 [1] read?
**A.** 3.42

**Q.** And the pKi [1]?
**A.** 4.82

**Q.** With `CC(C)NC(=O)c1cc(Sc2ccc(C(C)C)cc2)c[nH]c1=O` as the molecule, how does the pIC50 [2] read?
**A.** 6.30

**Q.** What about the pKi [2] of the same molecule?
**A.** 6.33

**Q.** How did the pIC50 [2] turn out when `CCCCNC(=O)c1cc(Sc2ccc(C(C)C)cc2)c[nH]c1=O` was run?
**A.** 6.62

**Q.** What about the pKi [2] of the same molecule?
**A.** 6.65

**Q.** `CC(C)c1ccc(Sc2cnc(O)c(C(=O)NCc3ccccc3)c2)cc1` was tested. Which pIC50 (K562) did it give?
**A.** 6.08

**Q.** And the pKd [3]?
**A.** 6.01

**Q.** And the pIC50 [2]?
**A.** 7.27

**Q.** What about the pKi [2] of the same molecule?
**A.** 7.27

**Q.** `CC(C)c1ccc(Sc2cnc(O)c(C(=O)NCCCc3ccccc3)c2)cc1` was tested. Which pIC50 [2] did it give?
**A.** 6.72

**Q.** What about the pKi [2] of the same molecule?
**A.** 6.72

**Q.** For `COc1ccnc(O)c1C#N`, which IC50 [1] is on record?
**A.** Not Active

**Q.** What about the Ki [1] of the same molecule?
**A.** Not Active

**Q.** What does the source list for `N#CC1=C2C(=NC1=O)c1cccc3c(N4CCSCC4)ccc2c13`?
**A.** pIC50 [2]: 7.34; pKi [2]: 7.34

**Q.** With `CN(C)CC[C@H](CSc1ccccc1)Nc1ccc(S(=O)(=O)NC(=O)c2ccc(N3CCN(Cc4ccccc4-c4ccc(Cl)cc4)CC3)cc2)cc1[N+](=O)[O-]` [ABT 737] as the molecule, how does the pIC50 (K562) read?
**A.** 4.79

**Q.** What about the pIC50 (RS4-11) of the same molecule?
**A.** 6.57

**Q.** Which results are given for `O=C1C(=O)c2cccc3cccc1c23` [ACENAPHTHOQUINONE]?
**A.** pIC50 [1]: 2.85; pKi [1]: 4.24

**Q.** With `Cc1cc2c(C(C)C)c(O)c(O)c(C=O)c2c(O)c1-c1c(C)cc2c(C(C)C)c(O)c(O)c(C=O)c2c1O` [GOSSYPOL] as the molecule, how does the pIC50 [2] read?
**A.** 6.77

**Q.** And the pKi [2]?
**A.** 6.67

**Q.** What about the pIC50 [1] of the same molecule?
**A.** 5.32

**Q.** And the pKi [1]?
**A.** 6.72
